SMILES strings stand for the structures.

The source of these data is patent publication US11192849B2, “Compounds, compositions, and methods for modulating ferroptosis and treating excitotoxic disorders” (THE TRUSTEES OF COLUMBIA UNIVERSITY IN THE CITY OF NEW YORK, priority 2013, dated 2021).

Series [1] can be described thus: In vitro stability study in mouse plasma. Format: in vitro ADME. On the procedure: The assay was conducted by incubating 1 μM of test compounds with Mouse Plasma (Strain […]) for a series of incubation times (0, 15, 30, 60, 120 minutes) at various temperatures (wet ice, room temperature, or 37° C.) with 5% CO2 and shaking (130 rpm). At each time point, the samples were quenched with 200 μL of stop solution containing an internal standard and kept on ice. The samples were analysed by LC-MS/MS.

The test system of the next series is ERK phosphorylation. The series can be described thus: ERK phosphorylation Western blot in HT-1080 cells. Format: cell-based, human. On the procedure:
Cells were trypsinized, pelleted, and washed once in PBS. Cells were lysed for 20 minutes in buffer containing: 50 mM HEPES pH 7.4, 40 mM NaCl, 2 mM EDTA, 0.5% Triton X-100, 1.5 mM sodium orthovanadate, 50 mM NaF, 10 mM sodium pyrophosphate, 10 mM sodium ß-glycerophosphate, and protease inhibitor tablet (Roche, Nutley, N.J.). Unlysed cells and debris were pelleted for 10 minutes at 10,000 rpm in a benchtop microcentrifuge at 4° C., and the supernatant was removed and mixed with 5×SDS loading buffer. Samples were separated by SDS-polyacrylamide gel electrophoresis. Western transfer was performed using the iBlot system (Invitrogen). Membrane was blocked for 1 hour in Licor Odyssey Blocking Buffer (LI-COR) and incubated in primary antibody overnight at 4° C. Following three 5-minute washes in Tris-buffered saline (pH 7.4) with 1% Tween-20 (TBS-T), membrane was incubated with secondary antibodies for 45 minutes in the dark. The membrane was washed again in TBST for three 5-minute washes with protection from light and scanned using the Odyssey Imaging System (LI-COR). Antibodies used were as follows: rabbit anti-phospho p42/44 MAPK (Cell Signaling Technology, #9101) and rabbit anti-p42/44 MAPK (Cell Signaling Technology, #9102). The secondary antibody was IR dye 800CW goat anti-rabbit IgG (LI-COR).
A general note: A western blot detects proteins with antibodies after separation by electrophoresis.

In series [2] the test system is mice, IRI of the cremaster muscle. The series can be described thus: In vivo microscopy on the postischemic cremaster muscle. Set-up: species or system mouse. As for the experimental part: The surgical preparation of the cremaster muscle was performed as originally described by Baez with minor modifications (Traykova-Brauch et al., 2008; Mulay et al., 2013). Mice were anesthetized using a ketamine/xylazine mixture (100 mg/kg ketamine and 10 mg/kg xylazine), administrated by i.p. injection. The left femoral artery was cannulated in a retrograde manner for administration of microspheres and drugs. The right cremaster muscle was exposed through a ventral incision of the scrotum. The muscle was opened ventrally in a relatively avascular zone, using careful electrocautery to stop any bleeding, and spread over the transparent pedestal of a custom-made microscopic stage. Epididymis and testicle were detached from the cremaster muscle and placed into the abdominal cavity. Throughout the procedure as well as after surgical preparation during in vivo microscopy, the muscle was superfused with warm-buffered saline.
The setup for in vivo microscopy was centered around equipment for stroboscopic fluorescence epiillumination microscopy. […] Microscopy images were obtained with Olympus water immersion lenses (20×/numerical aperture (N.A.) 0.5 and 10×/N.A. 0.3) and recorded with an analog black-and-white charge-coupled device (CCD) video camera (Cohu 4920; Cohu) and an analog video recorder (AG-7350-E; Panasonic). […] For measurement of centerline blood flow velocity, green fluorescent microspheres (2-μm diameter; Molecular Probes) were injected via the femoral artery catheter, and their passage through the vessels of interest was recorded using the FITC filter cube under appropriate stroboscopic illumination (exposure, 1 ms; cycle time, 10 ms; length of the electromagnetic wave, 488 nm), integrating video images for sufficient time (>80 ms) to allow for the recording of several images of the same bead on one frame. […]

In the case of `CCOC(=O)c1ccc(NC2CCCCC2)c(N)c1` [SRS8-28 (Fer-1), ethyl 3-amino-4-(cyclohexylamino)benzoate], the “mouse plasma stability” value in series [1] was “poor plasma stability”. Besides, the ERK phosphorylation entry in the series with ERK phosphorylation is on record as “did not inhibit ERK phosphorylation”. Besides, in series [2] (1 h and 2 h after onset of reperfusion), the leukocyte adherence entry was “remains unchanged”. For the same molecule, the leukocyte transmigration entry in series [2] (ferrostatin-1 2 mg/kg i.p.) is reported as “Significantly reduced”. Also, the leukocyte rolling result in series [2] (within the first hour after reperfusion) is “is affected”.
